The results in this text go back to US20230124361A1, “SMALL MOLECULE STING ANTAGONISTS” (CURADEV PHARMA PVT. LTD., priority 2020, published 2023).

The target of the assay is T1, STING (Homo sapiens, UniProt Q86WV6, G230A/H232R/R293Q/R71H).
T1 construct: host or cells: THP1-Dual cells (human THP-1 monocyte line with Lucia/SEAP reporters)
T1 sequence (Q86WV6 whole entry R71H/G230A/H232R/R293Q): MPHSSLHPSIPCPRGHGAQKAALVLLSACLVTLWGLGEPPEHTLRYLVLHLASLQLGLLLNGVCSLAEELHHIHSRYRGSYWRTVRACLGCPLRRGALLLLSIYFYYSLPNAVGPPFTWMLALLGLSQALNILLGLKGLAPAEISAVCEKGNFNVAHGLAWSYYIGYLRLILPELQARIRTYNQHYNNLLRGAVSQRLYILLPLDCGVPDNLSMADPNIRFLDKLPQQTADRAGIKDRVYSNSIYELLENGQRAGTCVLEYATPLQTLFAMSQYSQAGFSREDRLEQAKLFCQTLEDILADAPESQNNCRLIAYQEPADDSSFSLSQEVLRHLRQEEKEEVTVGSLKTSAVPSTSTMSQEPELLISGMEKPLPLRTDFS
The assay can be described thus: Reporter gene expression assay in THP1-Dual cells (IRF pathway Lucia luciferase, 2',3'-cGAMP stimulation). In kind it is cell-based. Conditions: 10 min preincubation, 5 μM 2',3'-cGAMP, 20 hr, IRF reporter QUANTI-Luc, read-out: THP-1 (HAQ) Activity. The essentials:
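THP1-Dual cells preincubated 10 min with compound, then stimulated with 5 μM 2′,3′-cGAMP for 20 hr. Secreted Lucia luciferase (IRF reporter) measured in supernatant by luminescence; IC50 reported as ranges (A ≤1 μM, B >1–≤10 μM, C >10 μM).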
`N#Cc1ccc(CN2C(=O)COc3cc(NC(=O)Nc4ccc5cc[nH]c5c4)ccc32)c(F)c1` [Example 120, 1-(4-(4-cyano-2-fluorobenzyl)-3-oxo-3,4-dihydro-2H-benzo[b][1,4]oxazin-7-yl)-3-(1H-indol-6-yl)urea]: the IC50 lay within 1000 to 10000 nM. On to `O=C(Nc1ccc2c(c1)OCC(=O)N2Cc1nc(-c2ccccc2)no1)Nc1ccc2cc[nH]c2c1` [Example 121, 1-(1H-indol-6-yl)-3-(3-oxo-4-((3-phenyl-1,2,4-oxadiazol-5-yl)methyl)-3,4-dihydro-2H-benzo[b][1,4]oxazin-7-yl)urea], for which the IC50 lay within 1000 to 10000 nM. As for `CS(=O)(=O)c1cc(Cl)ccc1CN1C(=O)COc2cc(NC(=O)Nc3ccc4cc[nH]c4c3)ccc21` [Example 122, 1-(4-(4-chloro-2-(methylsulfonyl)benzyl)-3-oxo-3,4-dihydro-2H-benzo[b][1,4]oxazin-7-yl)-3-(1H-indol-6-yl)urea], the IC50 fell in the range of 1000 to 10000 nM.

Regarding `N#Cc1ccc(CN2C(=O)COc3cc(NC(=O)Nc4ccc5cc[nH]c5c4)ccc32)cc1` [Example 123, 1-(4-(4-cyanobenzyl)-3-oxo-3,4-dihydro-2H-benzo[b][1,4]oxazin-7-yl)-3-(1H-indol-6-yl)urea], the IC50 lay in the range of 1000 to 10000 nM.

On to `COc1ccc(F)c(CN2C(=O)CSc3cc(NC(=O)Nc4ccc5cc[nH]c5c4)ccc32)c1Cl` [Example 124, l-(4-(2-chloro-6-fluoro-3-methoxybenzyl)-3-oxo-3,4-dihydro-2H-benzo[b][1, 4]thiazin-7-yl)-3-(1H-indol-6-yl)urea], for which the IC50 was ≤ 1000 nM. For the compound `O=C(Nc1ccc2c(c1)SCC(=O)N2Cc1c(F)ccc(O)c1Cl)Nc1ccc2cc[nH]c2c1` [Example 125, l-(4-(2-chloro-6-fluoro-3-hydroxybenzyl)-3-oxo-3,4-dihydro-2H-benzo[b][1, 4]thiazin-7-yl)-3-(1H-indol-6-yl)urea], the IC50 was ≤ 1000 nM. Take `COc1cc(F)c(CN2C(=O)CSc3cc(NC(=O)Nc4ccc5cc[nH]c5c4)ccc32)c(F)c1` [Example 126, 1-(4-(2,6-difluoro-4-methoxybenzyl)-3-oxo-3,4-dihydro-2H-benzo[b][1, 4]thiazin-7-yl)-3-(1H-indol-6-yl)urea]: the IC50 was ≤ 1000 nM. On to `O=C(Nc1ccc2c(c1)SCC(=O)N2Cc1c(F)cc(O)cc1F)Nc1ccc2cc[nH]c2c1` [Example 127, 1-(4-(2,6-difluoro-4-hydroxybenzyl)-3-oxo-3,4-dihydro-2H-benzo[b][1, 4]thiazin-7-yl)-3-(1H-indol-6-yl)urea], for which the IC50 fell in the range of 1000 to 10000 nM. On to `O=C(Nc1ccc2c(c1)OCC(=O)N2Cc1ccc(-n2cncn2)cc1)Nc1ccc2cc[nH]c2c1` [Example 128, 1-(4-(4-(1H-1,2,4-triazol-1-yl)benzyl)-3-oxo-3,4-dihydro-2H-benzo[b][1, 4]oxazin-7-yl)-3-(1H-indol-6-yl)urea], for which the IC50 is > 10000 nM. The same measure for `O=C(Nc1ccc2c(c1)OCC(=O)N2Cc1ccc2nonc2c1)Nc1ccc2cc[nH]c2c1` [Example 129, l-(4-(benzo[c][1,2,5]oxadiazol-5-ylmethyl)-3-oxo-3,4-dihydro-2H-benzo[b][1,4]oxazin-7-yl)-3-(1H-indol-6-yl)urea]: ≤ 1000 nM. Turning to `O=C(NCc1ccco1)Nc1ccc2c(c1)OCC(=O)N2Cc1ccccc1` [Example 130, 1-(4-benzyl-3-oxo-3,4-dihydro-2H-benzo[b][1, 4]oxazin-7-yl)-3-(furan-2-ylmethyl)urea], the IC50 is > 10000 nM. With `O=C(Nc1ccc2c(c1)OCC(=O)N2Cc1ccccc1)Nc1c[nH]nc1-c1ccc(Cl)cc1` [Example 131, 1-(4-benzyl-3-oxo-3,4-dihydro-2H-benzo[b][1, 4]oxazin-7-yl)-3-(3-(4-chlorophenyl)-1H-pyrazol-4-yl)urea], the IC50 is > 10000 nM. Consider `O=C(NCc1cc[nH]c1)Nc1ccc2c(c1)OCC(=O)N2Cc1ccccc1` [Example 132, 1-((1H-pyrrol-3-yl)methyl)-3-(4-benzyl-3-oxo-3,4-dihydro-2H-benzo[b][1, 4]oxazin-7-yl)urea], for which the IC50 is 1000 to 10000 nM.
